Experiment [1] deals with T1, LOX from glycine max (soybean) (Glycine max, UniProt P08170).
T1 construct: purchased Sigma-Aldrich
T1 sequence (P08170 1-839): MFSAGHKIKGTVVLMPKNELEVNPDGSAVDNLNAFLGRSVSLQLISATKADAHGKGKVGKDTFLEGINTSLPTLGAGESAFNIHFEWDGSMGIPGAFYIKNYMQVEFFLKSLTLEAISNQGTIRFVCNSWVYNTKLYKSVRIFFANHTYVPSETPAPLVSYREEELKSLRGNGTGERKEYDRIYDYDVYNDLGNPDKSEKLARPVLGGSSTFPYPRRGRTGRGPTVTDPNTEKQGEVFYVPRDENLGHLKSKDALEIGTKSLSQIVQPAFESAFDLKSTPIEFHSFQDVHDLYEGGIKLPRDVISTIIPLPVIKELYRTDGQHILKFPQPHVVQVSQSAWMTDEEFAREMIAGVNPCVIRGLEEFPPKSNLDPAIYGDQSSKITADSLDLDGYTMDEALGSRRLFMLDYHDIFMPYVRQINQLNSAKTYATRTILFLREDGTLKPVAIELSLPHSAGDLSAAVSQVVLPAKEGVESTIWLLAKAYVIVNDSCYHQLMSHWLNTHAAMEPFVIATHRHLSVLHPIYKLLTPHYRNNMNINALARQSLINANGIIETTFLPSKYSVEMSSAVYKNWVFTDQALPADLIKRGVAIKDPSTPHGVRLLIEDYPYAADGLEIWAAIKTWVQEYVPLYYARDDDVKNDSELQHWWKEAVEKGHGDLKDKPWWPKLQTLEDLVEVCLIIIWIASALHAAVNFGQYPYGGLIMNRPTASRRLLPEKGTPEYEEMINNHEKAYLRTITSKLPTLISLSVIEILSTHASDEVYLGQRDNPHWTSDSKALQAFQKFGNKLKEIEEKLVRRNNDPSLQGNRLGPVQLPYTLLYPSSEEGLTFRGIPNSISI
Kind of experiment: Lipoxygenase glycine max (soybean) assay. The experiment is classed as biochemical. The note with it: dose-response assay; read-out: IC50 for LOX inhibition. Here is the method: The inhibitory effect on LOX was assessed in 96-well plates, using a modified version of a previously reported procedure from Pereira et al.. […] After 5 min pre-incubation at room temperature, the reaction was started by addition of linoleic acid substrate (20 µL of a 4.18 mM solution in ethanol). The reaction was monitored at 234 nm using a multiplate reader (Multiskan Thermo Fisher Scientific Oy, Vantaa, Finland), for 3 min.

The next experiment deals with AGS cells. Kind of experiment: MTT cell viability, AGS cells. Type of experiment: cell-based. The note with it: 100 µM, 24 h. Here is the method: Adenocarcinoma gastric cells (AGS; Sigma-Aldrich, St. Louis, MO, USA), murine-macrophage cell line (RAW 264.7; American Type Culture Collection, LGC Standards S.L.U., Barcelona, Spain), and human foetal lung fibroblasts (MRC-5; ECACC, Porton Down Salisbury, UK) were cultured as a monolayer at 37 °C in a humidified incubator with 5% carbon dioxide. AGS and RAW 264.7 cells were grown in DMEM, supplemented with 1% streptomycin/penicillin and 10% FBS (Gibco®). MRC-5 cells were grown in MEM, supplemented with 1% streptomycin/penicillin and 10% FBS.
Cell viability was evaluated by the MTT reduction assay. Cells were cultured in 96-well plates (15,000 cells/well for AGS, 25,000 cells/well for RAW and 20,000 cells/well for MRC-5) and allowed to attach for 24 h. After incubation with compounds for 24 h, MTT (0.5 mg/mL final concentration) was added to each well and the plate was incubated for 75 min at 37 °C. Formazan crystals were dissolved by the addition of a DMSO: isopropanol mixture (3:1) and then quantified spectrophotometrically at 570 nm using a microplate reader (Multiskan Thermo Fisher Scientific Oy, Vantaa, Finland).

The next experiment concerns the target T2, COX-1 (Ovis aries, UniProt P05979).
T2 construct: purchased Cayman Chemical
T2 sequence (P05979 25-600): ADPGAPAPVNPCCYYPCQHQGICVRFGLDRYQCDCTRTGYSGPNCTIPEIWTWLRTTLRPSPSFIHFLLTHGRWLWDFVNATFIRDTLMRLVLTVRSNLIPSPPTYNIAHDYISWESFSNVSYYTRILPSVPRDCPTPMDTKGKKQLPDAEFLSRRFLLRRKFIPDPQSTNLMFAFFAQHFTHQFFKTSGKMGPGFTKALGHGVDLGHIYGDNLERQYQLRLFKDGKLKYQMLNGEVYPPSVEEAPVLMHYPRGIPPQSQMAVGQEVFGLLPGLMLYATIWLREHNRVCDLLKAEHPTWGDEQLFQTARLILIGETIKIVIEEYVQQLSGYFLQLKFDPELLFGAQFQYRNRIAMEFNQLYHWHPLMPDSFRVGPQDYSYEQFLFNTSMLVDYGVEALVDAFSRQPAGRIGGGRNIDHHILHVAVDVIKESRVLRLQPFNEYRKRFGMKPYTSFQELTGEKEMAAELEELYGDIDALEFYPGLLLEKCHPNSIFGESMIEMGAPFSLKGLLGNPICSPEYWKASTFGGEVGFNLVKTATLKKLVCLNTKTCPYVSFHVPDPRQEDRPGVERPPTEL
Details: method as in PMID 30987203. The note with it: 25 µM; cited from earlier work.

The structures appear in SMILES notation.

As for `COc1ccc2cc(C(C)C(=O)NC(Cc3ccc(O)cc3)C(=O)NC(=Cc3ccccc3)C(=O)O)ccc2c1` [Compound 1, Npx-L-Tyr-Z-ΔPhe-OH], the concentration for half-maximal inhibition (IC50) in experiment [1] worked out at 54.1 µM. In addition, the “toxicity towards AGS cells” value in the experiment with AGS cells is “not toxic”. The “COX inhibition level (COX-1)” value at COX-1 is “modest levels of COX inhibition”.

The values are drawn from article PMC7076388 (Pharmaceutics, 2020).
